Measured values from patent US20230184744A1, “INTERTUMORAL HOMOGENEITY DETERMINED BY MiCK ASSAY” (Pierian Biosciences, LLC, priority 2014, published 2023).
Numbered stars: 1 amine (or outer) side, 2 acyl side, 3 side chain; on linkers, the order of the positions; unused ones are H or OH. Bridge positions count the residues as written; N and C are the ends. Square brackets hold non-standard residues; d marks the D form. Peptide text beside a SMILES is read from it. I, II: the chains in the order shown. Actinocin(9to1) = Cc1c2oc3c(C)ccc(C(=O)[*:1])c3nc-2c(C(=O)[*:2])c(N)c1=O; NMeV = CN[C@H](C(=O)O)C(C)C; Sar = CNCC(=O)O

Key:
[1] = tested on: NSCLC, bilateral well-differentiated adenocarcinoma (site 1A); assay: MiCK assay, drug-induced apoptosis, Table 3 tumor B1; format: cell-based, human; conditions: Table 3 tumor B1: NSCLC, bilateral well-differentiated adenocarcinoma (site 1A); 48 hours with drug
Description: (§1) Data were obtained optically using Mie light-scattering.
(§2) Do a test well. […] Look at the well under the inverted microscope. […] Repeat until optimal cell concentration is found. Plate the cells into the wells.

[2] = tested on: NSCLC, multi-focal, recurrent adenocarcinoma (lymph node); assay: MiCK assay, drug-induced apoptosis, Table 3 tumor D2; format: cell-based, human; conditions: Table 3 tumor D2: NSCLC, multi-focal, recurrent adenocarcinoma (lymph node); 48 hours with drug
Description: as §1, §2

[3] = tested on: Lung adenocarcinoma (pleural effusion); assay: MiCK assay, drug-induced apoptosis, Table 4 tumor B1; format: cell-based, human; conditions: Table 4 tumor B1: Lung adenocarcinoma (pleural effusion); 48 hours with drug
Description: as §1
Patients: Three patients were included in this study. […] Patient A was diagnosed with pancreatic islet cell cancer; sample 1 was collected from lymph node and sample 2 was collected from the primary tumor. Patient B was diagnosed with lung cancer NSCLC adenocarcinoma; sample 1 was collected from pleural effusion and sample 2 was collected from solid tumor. […] Ages of the patients ranged from 51-79 years old with an average age of 65 years. One patient was […] and two were female.

[4] = tested on: NSCLC, multi-focal adenocarcinoma (site A); assay: MiCK assay, drug-induced apoptosis, Table 3 tumor E1; format: cell-based, human; conditions: Table 3 tumor E1: NSCLC, multi-focal adenocarcinoma (site A); 48 hours with drug
Description: as §1, §2

[5] = tested on: Probable mesothelioma (pleural effusion); assay: MiCK assay, drug-induced apoptosis, Table 3 tumor A2; format: cell-based, human; conditions: Table 3 tumor A2: Probable mesothelioma (pleural effusion); 48 hours with drug
Description: as §1
When the optimal cell concentration is reached, put the cells in the plate and incubate overnight in the incubating chamber of the incubator (37° C.).

[6] = tested on: NSCLC, bilateral well-differentiated adenocarcinoma (site 1B); assay: MiCK assay, drug-induced apoptosis, Table 3 tumor B2; format: cell-based, human; conditions: Table 3 tumor B2: NSCLC, bilateral well-differentiated adenocarcinoma (site 1B); 48 hours with drug
Description: as §1, §2

[7] = tested on: Pancreatic islet cell cancer (lymph node); assay: MiCK assay, drug-induced apoptosis, Table 4 tumor A1; conditions: Table 4 tumor A1: Pancreatic islet cell cancer (lymph node); 48 hours with drug
Description: (§3) After overnight incubation, chemotherapy drugs were added to the wells of the 96-well plate in 5 μL aliquots or to the wells of a 384-well plate in 2.5 μL aliquots using an automated pipettor. The number of drugs or drug combinations and the number of concentrations tested depended on the number of viable malignant cells that were isolated from the tumor specimen. The drug concentrations, determined by molarity, were those indicated by the manufacturer as the desired blood level concentration plus or minus one serial dilution if enough cells were available.
(§4) Following drug addition, the plate was incubated for 30 min. at 37° C. in a 5% carbon dioxide humidified atmosphere incubator. Each well was then overlayed with sterile mineral oil, and the plate was placed into the incubator chamber of a microplate spectrophotometric reader. The optical density at 600 nanometers was read and recorded every 5 minutes over a period of 48 hours.
(§5) Patients: Three patients were included in this study. Two tumor samples from different tumor sites were collected from each patient. Both samples from each patient were collected on the same day.

[8] = tested on: NSCLC, multi-focal, recurrent adenocarcinoma (site A); assay: MiCK assay, drug-induced apoptosis, Table 3 tumor C1; format: cell-based, human; conditions: Table 3 tumor C1: NSCLC, multi-focal, recurrent adenocarcinoma (site A); 48 hours with drug
Description: as §1, §2

[9] = tested on: Lung small cell carcinoma (site A); assay: MiCK assay, drug-induced apoptosis, Table 4 tumor C1; conditions: Table 4 tumor C1: Lung small cell carcinoma (site A); 48 hours with drug
Description: as §3, §4, §5

[10] = tested on: Lung adenocarcinoma (site B); assay: MiCK assay, drug-induced apoptosis, Table 4 tumor C2; conditions: Table 4 tumor C2: Lung adenocarcinoma (site B); 48 hours with drug
Description: as §3
(§6) Following drug addition, the plate was incubated for 30 min. at 37° C. in a 5% carbon dioxide humidified atmosphere incubator. Each well was then overlayed with sterile mineral oil, and the plate was placed into the incubator chamber of a microplate spectrophotometric reader. The optical density at 600 nanometers was read and recorded every 5 minutes over a period of 48 hours. Optical density increases, which correlates with apoptosis, were converted to kinetic units (KU) of apoptosis by a proprietary software ProApo with a formula described in the Kravtsov reference incorporated by reference (i.e. Kravtsov V. et al. “Use of the Microculture Kinetic Assay of apoptosis to determine chemosensitivities of leukemias.” Blood 1998; 92:968-980).
(§7) Purified tumor cells were cultured for 48 hours with individual drugs, and drug-induced apoptosis was measured using the MiCK assay as described in Example 1. Data were obtained optically using Mie light-scattering.

[11] = tested on: NSCLC, multi-focal, recurrent adenocarcinoma (right lung); assay: MiCK assay, drug-induced apoptosis, Table 3 tumor D1; format: cell-based, human; conditions: Table 3 tumor D1: NSCLC, multi-focal, recurrent adenocarcinoma (right lung); 48 hours with drug
Description: as §1, §2

[12] = tested on: Pancreatic islet cell cancer (primary tumor); assay: MiCK assay, drug-induced apoptosis, Table 4 tumor A2; conditions: 48 hours with drug
Description: as §3, §6, §7

| Molecule | kinetic units (KU) of apoptosis [1] [KU] | kinetic units (KU) of apoptosis [5] [KU] | kinetic units (KU) of apoptosis [6] [KU] | kinetic units (KU) of apoptosis [7] [KU] | kinetic units (KU) of apoptosis [9] [KU] | further results |
| --- | --- | --- | --- | --- | --- | --- |
| O=P1(NCCCl)OCCCN1CCCl (centres unmarked) [4HI (Ifosfamide), Ifosfamide] | 2.70 | 3.40 | 0.70 | 3.01 | 1.50 | kinetic units (KU) of apoptosis [2]: 1.20 KU; kinetic units (KU) of apoptosis [3]: 2.40 KU; kinetic units (KU) of apoptosis [4]: 0.10 KU; kinetic units (KU) of apoptosis [8]: 0.50 KU |
| O=c1[nH]cc(F)c(=O)[nH]1 [5FU, 5-Fluorouracil] |  |  |  | 0.42 |  |  |
| Nc1nc2[nH]cc(CCc3ccc(C(=O)N[C@@H](CCC(=O)O)C(=O)O)cc3)c2c(=O)[nH]1 [Alimta, Pemetrexed] | 1.40 | 1.20 | 1.60 | 0.22 | 1.40 | kinetic units (KU) of apoptosis [2]: 0.60 KU; kinetic units (KU) of apoptosis [10]: 0.70 KU; kinetic units (KU) of apoptosis [11]: 0.70 KU; kinetic units (KU) of apoptosis [8]: 0.80 KU |
| Cn1c(CCCC(=O)O)nc2cc(N(CCCl)CCCl)ccc21 [Bendamustine] |  |  |  | 1.39 |  |  |
| O=NN(CCCl)C(=O)NC1CCCCC1 [CCNU] |  |  |  | 1.00 | 0.90 |  |
| O=NN(CCCl)C(=O)NCCCl [Carmustine] |  |  |  | 0.82 | 3.00 | kinetic units (KU) of apoptosis [3]: 1.20 KU; kinetic units (KU) of apoptosis [10]: 0.50 KU |
| Nc1nc(Cl)nc2c1ncn2[C@H]1C[C@H](O)[C@@H](CO)O1 [Cladribine] |  |  |  | 0.61 |  |  |
| CN(C)/N=N/c1[nH]cnc1C(N)=O [Dacarbazine] |  |  |  | 1.31 |  | kinetic units (KU) of apoptosis [12]: 0.00 KU |
| Cc1c2oc3c(C)ccc(C(=O)N[C@@H]4C(=O)N[C@H](C(C)C)C(=O)N5CCC[C@H]5C(=O)N(C)CC(=O)N(C)[C@@H](C(C)C)C(=O)O[C@@H]4C)c3nc-2c(C(=O)N[C@@H]2C(=O)N[C@H](C(C)C)C(=O)N3CCC[C@H]3C(=O)N(C)CC(=O)N(C)[C@@H](C(C)C)C(=O)O[C@@H]2C)c(N)c1=O [Dactinomycin] (I: T[dV]P[Sar][NMeV] / II: T[dV]P[Sar][NMeV]; ester I:1-I:C, II:1-II:C; linker I:N-II:N via Actinocin(9to1)) | 1.20 | 4.70 | 0.90 |  | 7.70 | kinetic units (KU) of apoptosis [3]: 2.70 KU; kinetic units (KU) of apoptosis [10]: 3.00 KU; kinetic units (KU) of apoptosis [11]: 0.90 KU |
| COc1cccc2c1C(=O)c1c(O)c3c(c(O)c1C2=O)C[C@@](O)(C(C)=O)C[C@@H]3O[C@H]1C[C@H](N)[C@H](O)[C@H](C)O1 [Daunorubicin] | 1.40 | 3.80 | 1.40 |  | 8.10 |  |
| CO[C@H]1C[C@@H]2CC[C@@H](C)[C@@](O)(O2)C(=O)C(=O)N2CCCC[C@H]2C(=O)O[C@H]([C@H](C)C[C@@H]2CC[C@@H](OCCO)[C@H](OC)C2)CC(=O)[C@H](C)/C=C(\C)[C@@H](O)[C@@H](OC)C(=O)[C@H](C)C[C@H](C)/C=C/C=C/C=C/1C [Everolimus] |  |  |  | 1.31 | 0.50 | kinetic units (KU) of apoptosis [12]: 0.00 KU; kinetic units (KU) of apoptosis [10]: 1.00 KU |
| Cc1ccc(NC(=O)c2ccc(CN3CCN(C)CC3)cc2)cc1Nc1nccc(-c2cccnc2)n1 [Gleevec, imatinib] |  |  |  | 0.39 | 0.00 |  |
| CC(=O)[C@]1(O)Cc2c(O)c3c(c(O)c2[C@@H](O[C@H]2C[C@H](N)[C@H](O)[C@H](C)O2)C1)C(=O)c1ccccc1C3=O [Idarubicin] | 1.20 | 4.00 | 1.10 | 1.22 | 8.00 | kinetic units (KU) of apoptosis [10]: 3.00 KU; kinetic units (KU) of apoptosis [11]: 1.30 KU; kinetic units (KU) of apoptosis [8]: 0.90 KU |
| C/C(=C\c1csc(C)n1)[C@@H]1C[C@@H]2O[C@]2(C)CCC[C@H](C)[C@H](O)[C@@H](C)C(=O)C(C)(C)[C@@H](O)CC(=O)N1 [Ixabepilone] |  |  |  | 1.00 |  |  |
| N[C@@H](Cc1ccc(N(CCCl)CCCl)cc1)C(=O)O [Melphalan] |  |  |  | 0.57 |  | kinetic units (KU) of apoptosis [3]: 3.10 KU |
| CO[C@@]12[C@H](COC(N)=O)C3=C(C(=O)C(C)=C(N)C3=O)N1C[C@@H]1N[C@@H]12 [Mitomycin] | 1.20 | 1.00 | 1.00 | 1.04 | 6.30 | kinetic units (KU) of apoptosis [3]: 0.90 KU; kinetic units (KU) of apoptosis [11]: 0.60 KU; kinetic units (KU) of apoptosis [8]: 0.00 KU |
| O=C1c2c(O)ccc(O)c2C(=O)c2c(NCCNCCO)ccc(NCCNCCO)c21 [Mitoxantrone] |  |  |  | 0.82 | 1.60 | kinetic units (KU) of apoptosis [3]: 2.30 KU |
| CNC(=O)c1cc(Oc2ccc(NC(=O)Nc3ccc(Cl)c(C(F)(F)F)c3)cc2)ccn1 [Sorafenib] |  |  |  | 1.57 |  |  |
| CN(N=O)C(=O)N[C@@H](C=O)[C@@H](O)[C@H](O)[C@H](O)CO [Streptozocin] |  |  |  | 0.23 |  | kinetic units (KU) of apoptosis [12]: 0.0 KU |
| CCN(CC)CCNC(=O)c1c(C)[nH]c(/C=C2\C(=O)Nc3ccc(F)cc32)c1C [Sunitinib] |  |  |  | 1.93 |  | kinetic units (KU) of apoptosis [12]: 2.06 KU; kinetic units (KU) of apoptosis [3]: 0.70 KU |
| C#Cc1cccc(Nc2ncnc3cc(OCCOC)c(OCCOC)cc23)c1 [Tarceva] | 0.60 | 0.80 | 0.60 | 0.66 | 0.00 | kinetic units (KU) of apoptosis [10]: 0.70 KU; kinetic units (KU) of apoptosis [11]: 0.5 KU |
| Cn1nnc2c(C(N)=O)ncn2c1=O [Temozolomide] |  |  |  | 0.62 |  | kinetic units (KU) of apoptosis [12]: 1.22 KU |
| CC(C)C[C@H](NC(=O)[C@H](Cc1ccccc1)NC(=O)c1cnccn1)B(O)O [Velcade, Bortezomib] | 2.00 | 1.10 | 2.00 | 0.79 | 1.60 | kinetic units (KU) of apoptosis [3]: 3.40 KU; kinetic units (KU) of apoptosis [10]: 1.80 KU; kinetic units (KU) of apoptosis [11]: 0.60 KU; kinetic units (KU) of apoptosis [8]: 0.20 KU |
| Nc1ncn([C@@H]2O[C@H](CO)[C@@H](O)[C@H]2O)c(=O)n1 [Vidaza] |  |  |  | 1.00 |  |  |
| CC[C@]1(O)C[C@@H]2CN(CCc3c([nH]c4ccccc34)[C@@](C(=O)OC)(c3cc4c(cc3OC)N(C)[C@H]3[C@@](O)(C(=O)OC)[C@H](OC(C)=O)[C@]5(CC)C=CCN6CC[C@]43[C@@H]65)C2)C1 [Vinblastine] |  |  |  | 1.00 | 3.10 | kinetic units (KU) of apoptosis [10]: 2.00 KU |
| CCCCCOC(=O)Nc1nc(=O)n([C@@H]2O[C@H](C)[C@@H](O)[C@H]2O)cc1F [Xeloda] |  |  |  | 0.42 |  | kinetic units (KU) of apoptosis [12]: 0.90 KU |
| Bleomycin | 1.90 | 1.00 | 1.30 |  |  |  |
